Laboratory results from ChEMBL document CHEMBL1151331, “New cyclic peptides from the ascidian Lissoclinum patella” (J Nat Prod, 1998).

test: Cytotoxicity against human multi drug-resistant CEM/VBL100 cells in presence of vinblastine; type: functional, cell-based

Compound | IC50 [nM]
CC[C@H](C)[C@@H]1NC(=O)c2csc(n2)[C@@H](Cc2ccccc2)NC(=O)[C@H]2N=C(O[C@@H]2C)[C@H](CC(C)C)NC(=O)c2csc(n2)[C@@H](C)NC(=O)[C@H]([C@H](C)O)NC1=O [PATELLAMIDE G] | 60
CC[C@H](C)[C@@H]1NC(=O)c2csc(n2)[C@@H](C(C)C)NC(=O)[C@H]2N=C(O[C@@H]2C)[C@H]([C@@H](C)CC)NC(=O)c2csc(n2)[C@@H](C(C)C)NC(=O)[C@@H]2COC1=N2 [PATELLAMIDE A] | 90
CC(C)C[C@H]1NC(=O)[C@H]2N=C(O[C@@H]2C)[C@H]2CSSC[C@@H](NC(=O)c3csc1n3)C(=O)N[C@@H]([C@H](C)O)C(=O)N[C@H](Cc1ccccc1)c1nc(cs1)C(=O)N2 [ULITHIACYCLAMIDE G] | 90
CC(C)C[C@H]1NC(=O)[C@H]([C@H](C)O)NC(=O)[C@H]2CSSC[C@@H](NC(=O)c3csc1n3)C(=O)N[C@@H]([C@H](C)O)C(=O)N[C@H](Cc1ccccc1)c1nc(cs1)C(=O)N2 [ULITHIACYCLAMIDE E] | 112
CC(C)C[C@H]1NC(=O)[C@H]([C@H](C)O)NC(=O)[C@H]2CSSC[C@@H](NC(=O)c3csc1n3)C1=N[C@H](C(=O)N[C@H](Cc3ccccc3)c3nc(cs3)C(=O)N2)[C@@H](C)O1 [ULITHIACYCLAMIDE F] | 44
CC[C@H](C)[C@@H]1NC(=O)c2csc(n2)[C@@H](C)NC(=O)[C@H]2N=C(O[C@@H]2C)[C@H](CC(C)C)NC(=O)c2csc(n2)[C@@H](Cc2ccccc2)NC(=O)[C@H]2N=C1O[C@@H]2C [PATELLAMIDE B] | 12
CC[C@H](C)[C@@H]1NC(=O)c2csc(n2)[C@@H](C)NC(=O)[C@H]2N=C(O[C@@H]2C)[C@H](C(C)C)NC(=O)c2csc(n2)[C@@H](Cc2ccccc2)NC(=O)[C@H]2N=C1O[C@@H]2C [PATELLAMIDE C] | 12

test: Cytotoxicity against human multi drug-resistant CEM/VBL100 cells; type: functional, cell-based

Compound | IC50 [nM]
CC[C@]1(O)C[C@@H]2CN(CCc3c([nH]c4ccccc34)[C@@](C(=O)OC)(c3cc4c(cc3OC)N(C)[C@H]3[C@@](O)(C(=O)OC)[C@H](OC(C)=O)[C@]5(CC)C=CCN6CC[C@]43[C@@H]65)C2)C1 [VINBLASTINE] | 90
